{"source": "patent US20050107303A1", "about": "“Health feed” (priority 2001, published 2005)", "test_system": "immunoglobulin A", "assay": "IgA production by mid colon biopsy samples of cats fed the diets, measured by ELISA", "assay_type": "in vivo, cat", "method": "The study was carried out using eight members of the cat colonic health panel, which were known to be in good (intestinal) health. Cats were wormed and vaccinated 6 months prior to the start of the trial. The cats underwent the following trial regime; [table] Both the control diet and the glutamine enriched diet provided 405 kCal/100 g. The control diet was a dry diet containing approximately 4% water. The control diet comprised the following ingredients (˜is approximately): The glutamine-supplemented diet comprised 1% dry weight by weight glutamine provided as L-glutamine. The glutamine was sprayed onto the external surface of the dry control product. Levels of immunoglobulin A production by mid colon biopsy samples were measured by enzyme linked immunosorbent assay (ELISA). IgA ELISA test was obtained from Bethyl and performed as described in provided protocol sheets. In short, 96 well microplates were taken and coated with 100 μl anti-canine IgA overnight at 4° C. After each step the plates were washed with ELISA wash (50 Mm) Tris, pH 8.0, 0.1M NaCl, 0.05% Tween 20). Unreacted sites were blocked with tris-buffered saline (TBS) containing 1% bovine serum albumin (BSA) for 30 minutes. […] Finally, the absorbence was read spectrophotometrically at 450 nm using an ELISA plate reader."}
{"smiles": "NC(=O)CC[C@H](N)C(=O)O", "note": "[Glutamine, L-glutamine]", "values": [{"measurement": "IgA production by the colon, compared to the other diets", "setting": "cats fed diets containing 1% glutamine, samples taken from below the transwell, P=0.048, GLM", "result": "significant increase"}, {"measurement": "IgA production (ng/mg protein) Intestinal Sample", "setting": "healthy cats, diet with 1% dry w/w L-glutamine for 28 days, mid colon biopsy samples, letters (a)/(b) mark a significant difference", "result": "1003.1 ± 762.9 (b) ng/mg protein"}]}
